Experimental data from patent US20120108665A1, “METHODS AND COMPOSITIONS FOR TREATING OPHTHALMIC CONDITIONS” (REVISION THERAPEUTICS, INC., priority 2009, published 2012).

Assays:
[1] = tested on: serum RBP-retinol; assay: Serum retinol monitoring in Ins2Akita/+ diabetic mice fed HPR-supplemented diet; assay type: in vivo, mouse; details: diet containing HPR 0.1% w/w ad libitum, retinol at day 30 (FIG. 1A)
Description: (§1) Ins2Akita littermates (aged 2-5 months) were divided into two groups. One group received a specialized rodent diet containing HPR (0.1%, w/w). The second group received a rodent chow which was not supplemented with HPR. Mice ingested these diets ad libitum for 3 months (except where indicated). Serum retinol and glucose levels were regularly monitored throughout the treatment period. At the end of the treatment period, the mice were euthanized and eyecups were prepared for biochemical and immunohistochemical analyses.
(§2) Serum levels of retinol at day 30 (panel A) and glucose at 7-day intervals (panel B) are shown. The dashed line in panel B indicates mean glucose levels in wild-type mice.

[2] = tested on: Ins2Akita/+ mice; assay: Serum glucose (hyperglycemia) monitoring in Ins2Akita/+ diabetic mice fed HPR-supplemented diet; assay type: in vivo, mouse; details: diet containing HPR 0.1% w/w ad libitum, glucose at 7-day intervals (FIG. 1B)
Description: as §1, §2

[3] = tested on: ganglion cell layer; assay: Retinal histology (toludine blue staining) of ganglion cell layer in Ins2Akita/+ mice; assay type: in vivo, mouse; details: HPR diet 0.1% w/w
Description: as §1
(§3) Panels A and D are from Ins2Akita/+ mice fed the control diet. Panels B and E are from Ins2/Akita/+ mice fed the HPR-supplemented diet. Panels C and E are from age-matched wild-type mice. Arrows in panels A and D show disruption of the GCL and RAGE immunoreactivity.

[4] = tested on: RAGE; assay: RAGE immunoreactivity in retina tissue sections of Ins2Akita/+ mice; assay type: in vivo, mouse; details: HPR diet 0.1% w/w, 3 months (FIG. 2)
Description: as §1, §3

[5] = tested on: advanced glycation end products (AGEs); assay: AGE immunoreactivity in retina tissue sections of Ins2Akita/+ mice; assay type: in vivo, mouse; details: HPR diet 0.1% w/w, 3 months (FIG. 3)
Description: as §1

[6] = tested on: phosphorylated p38 MAPK; assay: Phosphorylated p38 MAPK immunoreactivity in RPE of Ins2Akita/+ mice; assay type: in vivo, mouse; details: HPR diet 0.1% w/w, 3 months (FIG. 4)
Description: as §1
Tissue sections from these mice were probed for phosphorylated p38 MAPK, a mediator of apoptotic cell death.

[7] = tested on: VEGF; assay: VEGF expression in retina of Ins2Akita/+ mice; assay type: in vivo, mouse; details: HPR diet 0.1% w/w, 3 months (FIG. 5)
Description: as §1

[8] = tested on: primary human retinal microvascular endothelial cells; assay: In vitro capillary tube formation assay; assay type: cell-based; details: HPR 10 mM; VEGF 10 ng/ml pretreatment; cells on Cultrex BME in 0.1% FBS (FIG. 6)
Source text: (§4) We set out to directly test the angiogenic properties of HPR in three different models of ocular angiogenesis. In the first, we induced angiogenesis in vitro by exposing primary human retinal microvascular endothelial cells to growth factors in the tube formation assay. Second, we utilized slow release pellets containing growth factor to induce angiogenesis in the corneal micropocket assay. Next, we looked at the effect of HPR treatment on angiogenesis in a transgenic animal model of early-onset retinal neovascularization, the very-low-density lipoprotein receptor (VLDLR) knockout mouse (vldlr−/−).
In parallel experiments, cells were pretreated with VEGF (10 ng/ml) and HPR ([…]) respectively. The cells were then plated in 0.1% FBS or 0.1% FBS-[…] HPR.

[9] = tested on: wild type Balb/c mice; assay: In vivo corneal micropocket assay (bFGF pellets); design: species or system mouse; details: 0.1% (w/w) HPR chow 8 weeks, bFGF ~80 ng/pellet, assessed 5 days later, FITC-dextran (FIG. 7)
Source text: as §4
At the end of this period, standardized slow release pellets containing bFGF (˜80 ng/pellet) were surgically inserted into the normally avascular corneas of the mice in the study. Blank pellets were implanted in the left eye. Vessel formation was assessed 5 days later when the mice were perfused with FITC-dextran and the eyes were enucleated and photographed. FIG. 7: Bright field (A-F) and fluorescence (G-L) images showing vessel growth (arrows) and the approximate location of the pellets (ovals).

[10] = tested on: VLDLR-/- knockout mice; assay: Retinal vascular leakage in VLDLR-/- knockout mice (retinal neovascularization model); assay type: in vivo, mouse; details: 0.1% HPR (w/w) chow 8 weeks, retinal flat mounts after FITC-dextran perfusion (FIG. 8)
Source text: as §4
VLDLR^−/− mice were fed either control or 0.1% HPR (w/w)-supplemented chow ad libitum for 8 weeks. The extent of retinal leakage was then assessed in retinal flat mounts after FITC-dextran perfusion.

## CC1=C(/C=C/C(C)=C/C=C/C(C)=C/C(=O)Nc2ccc(O)cc2)C(C)(C)CCC1 [HPR, N-(4-hydroxyphenyl)retinamide]
[1]
  serum RBP-retinol: significantly reduces
[2]
  effect on hyperglycemia (serum glucose): has no effect
[3]; 3 months (FIG. 5)
  preservation of ganglion cell layer and inner nuclear layer: remarkable preservation
[3]; 3 months, toludine blue staining (FIG. 2)
  integrity of the ganglion cell layer (GCL): well preserved
[4]
  RAGE immunoreactivity in the GCL: very little
[5]
  AGE immunoreactivity in the retina: significantly reduced
[6]
  p38 MAPK immunoreactivity in the RPE: barely detectable
[7]
  VEGF expression in all retina sublayers: dramatically reduced
[8]
  tube formation: reduced
[9]
  bFGF-induced corneal vessel growth (angiogenic response): striking reduction
[10]
  extent of retinal vascular leakage: significant reduction
